Values after ≈ are worked out from the molar mass of the structure shown.
Tests used:
[1] = test system: Mycobacterium tuberculosis; test: Antimycobacterial activity against isoniazid-resistant Mycobacterium tuberculosis after 14 days by broth microdilution method; assay type: functional; details: 336 h
[2] = test system: Mycobacterium tuberculosis; test: Antimycobacterial activity against isoniazid-resistant Mycobacterium tuberculosis after 21 days by broth microdilution method; assay type: functional; details: 504 h

Row | SMILES | MIC [1] [µM] | MIC [2] [µM]
1 | Cc1nc2sc3c(c2c(=O)n1/N=C/c1ccc(C#N)cc1)CCN(Cc1ccccc1)C3 | 20 (≈ 8.79 µg/mL) | 20 (≈ 8.79 µg/mL)
2 | N#Cc1ccc(/C=N/n2cnc3sc4c(c3c2=O)CCN(Cc2ccccc2)C4)cc1 | 9 (≈ 3.83 µg/mL) | 9 (≈ 3.83 µg/mL)
3 | O=c1c2c3c(sc2ncn1/N=C/c1ccc(Cl)cc1)CN(Cc1ccccc1)CC3 | 20 (≈ 8.7 µg/mL) | 20 (≈ 8.7 µg/mL)
4 | Cc1nc2sc3c(c2c(=O)n1/N=C/c1ccc(Cl)cc1)CCN(Cc1ccccc1)C3 | 8 (≈ 3.59 µg/mL) | 8 (≈ 3.59 µg/mL)
5 | COc1ccc(/C=N/n2cnc3sc4c(c3c2=O)CCN(Cc2ccccc2)C4)cc1 | 20 (≈ 8.61 µg/mL) | 20 (≈ 8.61 µg/mL)
6 | O=c1c2c3c(sc2ncn1/N=C/c1cccs1)CN(Cc1ccccc1)CC3 | 22 (≈ 8.94 µg/mL) | 22 (≈ 8.94 µg/mL)
7 | CC[C@@H](CO)NCCN[C@@H](CC)CO [ETHAMBUTOL] | 4 (≈ 0.817 µg/mL) | 4 (≈ 0.817 µg/mL)
8 | NNC(=O)c1ccncc1 [ISONIAZID] | > 8 | > 8
9 | CO[C@H]1/C=C/O[C@@]2(C)Oc3c(C)c(O)c4c(O)c(c(/C=N/N5CCN(C)CC5)c(O)c4c3C2=O)NC(=O)/C(C)=C\C=C\[C@H](C)[C@H](O)[C@@H](C)[C@@H](O)[C@@H](C)[C@H](OC(C)=O)[C@@H]1C [RIFAMPIN] | 2 (≈ 1.65 µg/mL) | 2 (≈ 1.65 µg/mL)
10 | CN[C@@H]1[C@H](O[C@H]2[C@H](O[C@H]3[C@H](O)[C@@H](O)[C@H](N=C(N)N)[C@@H](O)[C@@H]3N=C(N)N)O[C@@H](C)[C@]2(O)C=O)O[C@@H](CO)[C@H](O)[C@H]1O [STREPTOMYCIN] | 2 (≈ 1.16 µg/mL) | 2 (≈ 1.16 µg/mL)

Reference: ChEMBL document CHEMBL3751688, “Synthesis, in vitro antimycobacterial evaluation and docking studies of some new 5,6,7,8-tetrahydropyrido[4',3':4,5]thieno[2,3-d]pyrimidin-4(3H)-one schiff bases” (Bioorg Med Chem Lett, 2016)
